From ChEMBL document CHEMBL5528049, “Discovery of (4-Pyrazolyl)-2-aminopyrimidines as Potent and Selective Inhibitors of Cyclin-Dependent Kinase 2” (J Med Chem, 2024)
Values after ≈ are worked out from the molar mass of the structure shown.

What was measured:
[1] = Solubility of compound in SGF by HPLC analysis
[2] = Intrinsic clearance in human liver microsomes at 1 uM measured upto 30 mins by LC/MS analysis; format: ADME, Microsome; conditions: read-out: CLH (converted)
[3] = Protein binding in human plasma assessed as free fraction incubated for 2 hrs by LC-MS/MS analysis; format: ADME, cell-free
[4] = Apparent permeability from apical to basolateral side in human Caco-2 cells at 50 uM incubated for 120 mins by LCMS analysis
CDK6/cyclin D3 = CDK6/cyclin D3 (Homo sapiens, UniProt Q00534); assay: Inhibition of N-terminal GST-tagged human CDK6 (1 to 326 residues)/N-terminal 6-His fused human Cyclin D3 (1 to 292 residues) expressed in Sf9 insect cells incubated for 60 mins by HTRF assay
[5] = target: T1, Cyclin-dependent kinase 2 (Homo sapiens, UniProt P24941); assay: Inhibition of CDK2 in human whole blood spiked with CCNE1-amplified human COV318 cells assessed as reduction in retinoblastoma protein phosphorylation at S780 residue incubated overnight by HTRF microplate reader; format: cell-based
[6] = target: Cyclin-dependent kinase 2/cyclin E1 (Homo sapiens, UniProt P24941); assay: Inhibition of N-terminal GST-tagged full-length human CDK2(1 to 298 residues) /FLAG-tagged human Cyclin E1 (1 to 410 residues) expressed in baculovirus-infected Sf21 cells incubated for 60 mins in presence of ATP by HTRF assay
Homo sapiens [7] = species: Homo sapiens; assay: Selectivity index, ratio of IC50 for inhibition of C-terminal 6-His tagged recombinant full-length human CDK7/recombinant full-length human Cyclin H/N-terminal GST-tagged recombinant full-length human MAT1 expressed in baculovirus infected Sf21 insect cells to IC50 for inhibition of N-terminal …
[8] = target: Cyclin-dependent kinase 4/cyclin D1 (Homo sapiens, UniProt P11802); assay: Inhibition of N-terminal GST-tagged human CDK4 (4 to 303 residues)/N-terminal GST-tagged human Cyclin D1 (4 to 295 residues) expressed in Sf9 insect cells incubated for 60 mins in presence of ATP by HTRF assay
Homo sapiens [9] = species: Homo sapiens; assay: (§1) Selectivity index, ratio of IC50 for inhibition of N-terminal GST-tagged full length human CDK9 (1 to 372 residues)/His-tagged human Cyclin T1 (1 to 726 residues) expressed in baculovirus infected Sf21 insect cells to IC50 for inhibition of N-terminal GST-tagged full-length human CDK2(1 to 298 residues) /FLAG-tagged human Cyclin E1 (1 to 410 residues) expressed in baculovirus-infected Sf21 cells
Homo sapiens [10] = species: Homo sapiens; assay: as §1, with “CDK1” for “CDK9”, “297 residues)/human” for “372 residues)/His-tagged human”, “B1” for “T1”, “433” for “726”, “Sf21” for “Sf21 insect”
CDK7/Cyclin H/MNAT1 = CDK7/Cyclin H/MNAT1 (Homo sapiens, UniProt P50613); assay: Inhibition of C-terminal 6-His tagged recombinant full-length human CDK7/recombinant full-length human Cyclin H/N-terminal GST-tagged recombinant full-length human MAT1 expressed in baculovirus infected Sf21 insect cells incubated for 60 mins in presence of ATP by HTRF assay
[11] = target: Cyclin-dependent kinase 1/cyclin B1 (Homo sapiens, UniProt P06493); assay: Inhibition of N-terminal GST-tagged full length human CDK1 (1 to 297 residues)/human Cyclin B1 (1 to 433 residues) expressed in baculovirus infected Sf21 cells incubated for 60 mins in presence of ATP by HTRF assay
CDK9/cyclin T1 = CDK9/cyclin T1 (Homo sapiens, UniProt P50750); assay: Inhibition of N-terminal GST-tagged full length human CDK9 (1 to 372 residues)/His-tagged human Cyclin T1 (1 to 726 residues) expressed in baculovirus infected Sf21 insect cells incubated for 60 mins by HTRF assay
[12] = target: T1, Cyclin-dependent kinase 2; assay: Inhibition of CDK2 in CCNE1-amplified human COV318 cells assessed as reduction in retinoblastoma protein phosphorylation at S780 residue incubated overnight by HTRF microplate reader; format: cell-based
Homo sapiens [13] = species: Homo sapiens; assay: as §1, with “GST-tagged” for “GST-tagged full length”, “CDK6” for “CDK9”, “326 residues)/N-terminal 6-His fused” for “372 residues)/His-tagged”, “D3” for “T1”, “292” for “726”, “Sf9” for “baculovirus infected Sf21”
Homo sapiens [14] = species: Homo sapiens; assay: Selectivity index, ratio of IC50 for inhibition of N-terminal GST-tagged human CDK4 (4 to 303 residues)/N-terminal GST-tagged human Cyclin D1 (4 to 295 residues) expressed in Sf9 insect cells to IC50 for inhibition of N-terminal GST-tagged full-length human CDK2(1 to 298 residues) /FLAG-tagged human Cyclin E1 (1 to 410 residues) expressed in baculovirus-infected Sf21 cells
[15] = target: Tyrosine-protein kinase JAK2 (Homo sapiens, UniProt O60674); assay: Inhibition of JAK2 (unknown origin) incubated for 90 mins in presence of ATP by fluorescence microplate reader
[16] = Volume of distribution at steady state in cynomolgus monkey at 0.5 mg/kg, iv administered as cassette dose and measured upto 24 hrs by LC-MS/MS analysis; format: ADME, organism-based, Macaca fascicularis; conditions: in vivo, read-out: Vdss
[17] = Cmax in cynomolgus monkey at 1.5 mg/kg, po administered as cassette dose and measured upto 24 hrs by LC-MS/MS analysis; format: ADME, organism-based, Macaca fascicularis; conditions: in vivo
[18] = Cmax in Sprague-Dawley rat at 3 mg/kg, po administered as cassette dose and measured upto 24 hrs by LC-MS/MS analysis; format: ADME, organism-based; conditions: in vivo
[19] = Oral bioavailability in cynomolgus monkey at 1.5 mg/kg administered as cassette dose and measured upto 24 hrs by LC-MS/MS analysis; format: ADME, organism-based, Macaca fascicularis; conditions: in vivo
[20] = AUC in cynomolgus monkey at 1.5 mg/kg, po administered as cassette dose and measured upto 24 hrs by LC-MS/MS analysis; format: ADME, organism-based, Macaca fascicularis; conditions: in vivo
[21] = Oral bioavailability in Sprague-Dawley rat at 3 mg/kg administered as cassette dose and measured upto 24 hrs by LC-MS/MS analysis; format: ADME, organism-based; conditions: in vivo
[22] = Hepatic blood flow in Sprague-Dawley rat at 0.5 mg/kg, iv administered as cassette dose and measured upto 24 hrs by LC-MS/MS analysis; format: ADME, organism-based; conditions: in vivo
[23] = Half-life in cynomolgus monkey at 0.5 mg/kg, iv administered as cassette dose and measured upto 24 hrs by LC-MS/MS analysis; format: ADME, organism-based, Macaca fascicularis; conditions: in vivo
[24] = Half-life in Sprague-Dawley rat at 0.5 mg/kg, iv administered as cassette dose and measured upto 24 hrs by LC-MS/MS analysis; format: ADME, organism-based; conditions: in vivo
[25] = AUC in Sprague-Dawley rat at 3 mg/kg, po administered as cassette dose and measured upto 24 hrs by LC-MS/MS analysis; format: ADME, organism-based; conditions: in vivo
[26] = Volume of distribution at steady state in Sprague-Dawley rat at 0.5 mg/kg, iv administered as cassette dose and measured upto 24 hrs by LC-MS/MS analysis; format: ADME, organism-based; conditions: in vivo, read-out: Vdss
[27] = Hepatic blood flow in cynomolgus monkey at 0.5 mg/kg, iv administered as cassette dose and measured upto 24 hrs by LC-MS/MS analysis; format: ADME, organism-based, Macaca fascicularis; conditions: in vivo

| Compound | solubility [1] [µg/mL] | CLint scaled at 1 µM [2] [mL/min/kg] | fraction unbound at 2 h [3] | Papp A→B at 2 h, 50 µM [4] [×10⁻⁶ cm/s] | IC50 (CDK6/cyclin D3) [nM] | IC50 [5] [nM] | IC50 [6] [nM] | IC50 [8] [nM] | IC50 [11] [nM] | Ratio IC50 (Homo sapiens [10]) | further results |
| --- | --- | --- | --- | --- | --- | --- | --- | --- | --- | --- | --- |
| CC(C)(O)Cn1cc(-c2nc(NC3CCN(S(=O)(=O)C4CC4)CC3)ncc2C#N)cn1 | 41 (≈ 92 µM) | < 8.33 | 0.35 | 4.3 | – | – | – | – | – | – | – |
| N#Cc1cnc(NC2CCN(S(=O)(=O)c3ccccn3)CC2)nc1-c1cnn(CC(F)(F)F)c1 | < 1 | 13.3 | 0.035 | 18 | – | – | – | – | – | – | – |
| CS(=O)(=O)N1CCC(Nc2ncc(C(F)(F)F)c(-c3cnn(-c4ccccc4Cl)c3)n2)CC1 | – | 16.7 | – | – | 24 | 823 | 0.56 | 10 | 90 | 160 | – |
| Cc1cnc(Nc2ccc(NS(C)(=O)=O)cc2)nc1-c1cnn(C(CC#N)C2CCCC2)c1 (racemic) | – | – | – | – | – | – | 607 | – | – | – | IC50 [15]: < 1 nM |
| CS(=O)(=O)N1CCC(Nc2ncc(C(F)(F)F)c(-c3cnn(-c4ccc(C#N)cc4Cl)c3)n2)CC1 | – | 8.33 | 0.012 | – | – | – | – | – | – | – | – |

Now from value to compound, other results behind:

| solubility [1] [µg/mL] | CLint scaled at 1 µM [2] [mL/min/kg] | fraction unbound at 2 h [3] | Papp A→B at 2 h, 50 µM [4] [×10⁻⁶ cm/s] | IC50 (CDK6/cyclin D3) [nM] | IC50 [5] [nM] | IC50 [6] [nM] | IC50 [8] [nM] | IC50 [11] [nM] | Compound | Ratio IC50 (Homo sapiens [10]) | further results |
| --- | --- | --- | --- | --- | --- | --- | --- | --- | --- | --- | --- |
| 94 (≈ 173 µM) | 11.7 | 0.078 | 3.3 | 58 | 263 | 0.53 | 11 | 43 | CNCc1ccc(-n2cc(-c3nc(NC4CCN(S(C)(=O)=O)CC4)ncc3C(F)(F)F)cn2)c(Cl)c1 | 81 | Ratio IC50 (Homo sapiens [7]): 62; Ratio IC50 (Homo sapiens [9]): 5900; IC50 (CDK7/Cyclin H/MNAT1): 33 nM; IC50 (CDK9/cyclin T1): 3130 nM; IC50 [12]: 25 nM; Ratio IC50 (Homo sapiens [13]): 109; Ratio IC50 (Homo sapiens [14]): 21 |
| 11 (≈ 23.3 µM) | 18.3 | – | – | 10 | 5050 | 2 | 3.2 | 257 | CS(=O)(=O)N1CCC(Nc2ncc(C(F)(F)F)c(-c3cnn(C4CCCCC4)c3)n2)CC1 | 130 | – |
| – | – | – | – | – | – | 16 | – | 1020 | CS(=O)(=O)N1CCC(Nc2ncc(Cl)c(-c3cnn(C4CCOCC4)c3)n2)CC1 | – | IC50 [15]: > 10000 nM |
| – | 10 | 0.33 | – | – | – | – | – | – | CNCc1ccc(-n2cc(-c3nc(NC4CCN(S(C)(=O)=O)CC4)ncc3C#N)cn2)c(Cl)c1 | – | Vd [16]: 4.4 L/kg; Cmax [17]: 93 nM; Cmax [18]: 412 nM; bioavailability [19]: 20%; AUC at 24 h [20]: 0.923 µM·h; bioavailability [21]: 69%; QH [22]: 36%; half-life [23]: 6 h; half-life [24]: 3.8 h; AUC at 24 h [25]: 3.5 µM·h; Vd [26]: 5.7 L/kg; QH [27]: 26% |
